# Experimental data reported in US4535079A, “Alkanolaminoxy derivatives of 3,4-dihydro-2H-1,4-benzothiazin-3-one, their production process, and their pharmaceutical use” (Mediolanum Farmaceutici S.R.L., priority 1982, dated 1985).
# Where a name gives a salt, the structure may show the parent alone.
# What was measured:
# [1] = system: beta-adrenergic cardiac receptors (isolated guinea pig atrium); test: Beta-blocking activity: isolated guinea pig atrium method; settings: concentration inhibiting 25% of the response to isoprenaline, 29° C., 10 minutes before isoprenaline
# Protocol: (a) Beta-blocking activity: isolated guinea pig atrium method
# The compounds under examination were tested on the isolated guinea pig atrium for their capacity to antagonise the positive inotropic and chronotropic effects induced by isoprenaline. The preparations were made up from native guinea pigs weighing 450±50 g and suspended in a 10 ml bath of oxygenated Tyrode maintained at 29° C., the frequency and force of contraction being recorded by means of an isotonic pen loaded with 1.5 g and having an amplification ratio of 1:15. The substance under test was added to the medium in a volume of 0.1 ml 10 minutes before stimulation by isoprenalina administered at the optimum concentration which had been determined on the basis of the reactivity of the preparation.
# [2] = system: isolated guinea pig trachea; test: Beta-blocking activity by the isolated guinea pig trachea method; settings: concentration able to inhibit 50% of the response; 37° C., 12 minutes before stimulation
# Protocol: (b) Beta-blocking activity by the isolated guinea pig trachea method
# The series was also tested for beta-blocking activity at the level of the isolated guinea pig trachea, evaluated as antagonism to the effect of isoprenaline.
# A trachea segment was withdrawn from animals weighing 450±50 g, and a spiral of tissue was prepared and then suspended in a 20 ml bath of oxygenated Tyrode containing 10^-7 g/ml of acetylcholine and […] of eserine, the bath being temperature-controlled at 37° C. The recording was made by means of an isotonic pen with maximum amplification,loaded to 0.5 g and constantly cibrated.
# Having determined the sub-maximum concentration of isoprenaline for stimulating the preparation, the test substance was placed in contact with it at different concentrations 12 minutes before stimulation, then evaluating the antagonistic effect.
# guinea pig = test: Protection from the lethal effect of aconitine in the guinea pig; assay type: in vivo; settings: Cavia porcellus, 10 min, intravenous, 10 minutes before aconitine perfusion, read-out: percentage increase in the time of death by aconitine with respect to the control animals; for change in vivo at 0.025 mg/kg: dose 25 μg/kg; for change in vivo at 0.02 mg/kg: dose 20 μg/kg; for change in vivo at 0.009 mg/kg: dose 9 μg/kg; for change in vivo at 0.01 mg/kg: dose 10 μg/kg; for change in vivo at 0.015 mg/kg: dose 15 μg/kg
# Protocol: Protection from the methal effect of aconitine in the guinea pig. For the compounds according to the invention, an evaluation was made of their capacity to antagonise the lethal effect of aconitine in native guinea pigs of both sexes having an average weight of 400±50 g, anesthetized with 10% ethylurethan (1 g/kg i.p.), by making an E.C.G. precardiacal recording. Death was induced by perfusing aconitine through the jugular at a dose of 150 γ/kg/hour (5 ml/hour). The time of commencement of arrhythmia, the time of commencement of fibrillation and the time of death were checked. The product under examination were administered to the jugular vein 10 minutes before commencement of perfusion in doses from 0.01 mg/kg to 10 mg/kg.
# [3] = LD50 in the male Wistar rat by intravenous administration; settings: in vivo, i.v.
SMILES,"IC25, positive chronotropic effect with isoprenaline [1] [µg/mL]","IC25, positive inotropic effect with isoprenaline [1] [µg/mL]","IC50, antagonism in the response of the isolated guinea pig trachea to isoprenaline [2] [µg/mL]",change in vivo at 0.025 mg/kg (guinea pig) [%],LD50 [3] [mg/kg],change in vivo at 0.02 mg/kg (guinea pig) [%],change in vivo at 0.009 mg/kg (guinea pig) [%],change in vivo at 0.01 mg/kg (guinea pig) [%],change in vivo at 0.015 mg/kg (guinea pig) [%]
CC(C)NCC(O)COc1ccc2c(c1)NC(=O)CS2 (stereo not drawn) [VII],0.415,0.346,0.43,24.1,80,,,,
CC(C)CNCC(O)COc1ccc2c(c1)SCC(=O)N2 (stereo not drawn) [Compound XII],0.55,0.361,0.806,,82,16.4,,,
CC(C)NCC(O)COc1cccc2c1SCC(=O)N2 (stereo not drawn) [XV],0.0641,0.0587,0.123,,73,,48.6,,
"CC(C)(C)NCC(O)COc1cccc2c1CCC(=O)N2 (stereo not drawn) [Carteolol, 5-(3-tert.butylamino-2-hydroxy-propoxy)-3,4-dihydro-carbostyryl-hydrochloride, reference compound]",0.00905,0.00173,,,50,,,,
CCC(C)NCC(O)COc1cccc2c1SCC(=O)N2 (stereo not drawn) [XVIII],0.803,0.0705,1.21,,75,,,49.2,
CC(C)(C)NCC(O)COc1cccc2c1SCC(=O)N2 (stereo not drawn) [XVII],0.000992,0.000276,0.0015,,50,,55.4,,
CCC(C)NCC(O)COc1ccc2c(c1)NC(=O)CS2 (stereo not drawn) [Compound X],0.803,0.67,0.66,11.3,78,,,,
CC(C)CNCC(O)COc1ccc2c(c1)NC(=O)CS2 (stereo not drawn) [VIII],0.861,0.741,1.14,,83,19,,,
CC(C)NCC(O)COc1ccc2c(c1)SCC(=O)N2 (stereo not drawn) [Compound XI],0.091,0.0743,0.76,,65,,,,21.3
"CC(C)(C)NCC(O)COc1ccc2c(c1)SCC(=O)N2 (stereo not drawn) [Compound XIII, 7-(3-tert.butylamino-2-hydroxy)-propoxy-3,4-dihydro-2H-1,4-benzothiazin-3-one]",0.0703,0.0565,0.125,,60,,,39.7,
CC(C)CNCC(O)COc1cccc2c1SCC(=O)N2 (stereo not drawn) [XVI],0.13,0.0995,0.112,,67,,,32.2,
CC(C)(C)NCC(O)COc1ccc2c(c1)NC(=O)CS2 (stereo not drawn) [IX],0.255,0.203,0.568,,75,,,25.9,
CCC(C)NCC(O)COc1ccc2c(c1)SCC(=O)N2 (stereo not drawn) [XIV],0.202,0.0978,0.25,,68,,,,20.6
